Reference: ChEMBL document CHEMBL1122011, “Synthesis of N-(carbonylamino)-1,2,3,6-tetrahydropyridines with analgesic, antiinflammatory, and hyperglycemic activity” (J Med Chem, 1982)

Key:
Assay type in all cases: functional
Mus musculus [1] = assay: Analgesic activity in mice using phenylquinone writhing test at 14.5 mg/kg, sc dose; settings: route subcutaneous
Rattus norvegicus [2] = assay: Inhibitory against carrageenan induced paw edema in rat at 128 mg/kg, sc dose after 3h; settings: route subcutaneous
Rattus norvegicus [3] = assay: % change in blood glucose concentration after 2 hr post treatment at 100 mg/kg, po; parameters: unit: %
Rattus norvegicus [4] = assay: Inhibitory against carrageenan induced paw edema in rat at 128 mg/kg, sc dose after 5 hr; settings: route subcutaneous
Rattus norvegicus [5] = assay: (§1) % change in blood glucose concentration after 4 hr post treatment at 100 mg/kg, po
Mus musculus [6] = assay: Analgesic activity in mice using phenylquinone writhing test at 30 mg/kg, sc dose; settings: route subcutaneous
Rattus norvegicus [7] = assay: as §1; parameters: unit: %
Rattus norvegicus [8] = assay: % change in blood glucose concentration after 4 hr post treatment at 128 mg/kg, po
Mus musculus [9] = assay: Inhibitory against carrageenan induced paw edema in mice at 128 mg/kg, sc dose after 3h; settings: route subcutaneous
Mus musculus [10] = assay: Inhibitory against carrageenan induced paw edema in mice at 128 mg/kg, sc dose after 5 hr; settings: route subcutaneous
Mus musculus [11] = assay: Analgesic activity in mice using phenylquinone writhing test at 128 mg/kg when administered subcutaneously; settings: sc, route subcutaneous
Rattus norvegicus [12] = assay: % change in blood glucose concentration after 2 hr post treatment at 128 mg/kg, po
Mus musculus [13] = assay: Analgesic activity in mice using phenylquinone writhing test at 0.00075 mg/kg, sc dose; settings: route subcutaneous
Rattus norvegicus [14] = assay: % change in blood glucose concentration after 2 hr post treatment at 50 mg/kg, po
Rattus norvegicus [15] = assay: % change in blood glucose concentration after 4 hr post treatment at 60 mg/kg, po
Mus musculus [16] = assay: Analgesic activity in mice using phenylquinone writhing test at 50 mg/kg, sc dose; settings: route subcutaneous
Mus musculus [17] = assay: Inhibitory against carrageenan induced paw edema in mice at 12 mg/kg, sc dose after 5 hr; settings: route subcutaneous
Mus musculus [18] = assay: Inhibitory against carrageenan induced paw edema in mice at 12 mg/kg, sc dose after 3h; settings: route subcutaneous
Mus musculus [19] = assay: Analgesic activity in mice using phenylquinone writhing test at 56 mg/kg, sc dose; settings: route subcutaneous

SMILES | Hyperglycemic activity (Rattus norvegicus [3]) | inhibition in vivo at 30 mg/kg (Mus musculus [6]) [%] | Hyperglycemic activity (Rattus norvegicus [7]) | also measured
O=C(Cc1cccnc1)NN1CC=CCC1 | 0 |  |  | inhibition in vivo at 14.5 mg/kg (Mus musculus [1]): 50%; inhibition in vivo at 128 mg/kg (Rattus norvegicus [2]): 50%; inhibition in vivo at 128 mg/kg (Rattus norvegicus [4]): 50%; Hypoglycemic activity (Rattus norvegicus [5]): -6
O=C(NN1CC=CCC1)C1CCCC1 | 54 | 98 | 22 | 
O=C(NN1CC=CCC1)c1cccc[n+]1[O-] |  |  |  | Hypoglycemic activity (Rattus norvegicus [8]): <20; inhibition in vivo at 128 mg/kg (Mus musculus [9]): 34%; inhibition in vivo at 128 mg/kg (Mus musculus [10]): 0%; inhibition in vivo at 128 mg/kg (Mus musculus [11]): 55%; Hypoglycemic activity (Rattus norvegicus [12]): <20
CC(C)(C)C(=O)NN1CC=CCC1 | 70 | 100 | 101 | 
O=C(NN1CC=CCC1)c1cccc(C(=O)NN2CC=CCC2)n1 | -8 | 60 | 10 | 
O=C(NN1CC=CCC1)C1CCCCCC1 | 100 | 98 | 82 | inhibition in vivo at 0.00075 mg/kg (Mus musculus [13]): 50%; Hyperglycemic activity (Rattus norvegicus [14]): 50; Hyperglycemic activity (Rattus norvegicus [15]): 50
O=C(NN1CC=CCC1)C12C[C@H]3C[C@@H](C1)C[C@@H](C2)C3 | 33 | 86 | 22 | 
Cn1cccc1C(=O)NN1CC=CCC1 | 35 | 90 | 25 | 
CC(=O)Oc1ccccc1C(=O)O [ASPIRIN] |  |  |  | inhibition in vivo at 50 mg/kg (Mus musculus [16]): 50%
COc1ccc2c(c1)c(CC(=O)O)c(C)n2C(=O)c1ccc(Cl)cc1 [INDOMETHACIN] |  |  |  | inhibition in vivo at 12 mg/kg (Mus musculus [17]): 83%; inhibition in vivo at 12 mg/kg (Mus musculus [18]): 17%
CCC(=O)O[C@](Cc1ccccc1)(c1ccccc1)[C@H](C)CN(C)C [PROPOXYPHENE] |  |  |  | inhibition in vivo at 56 mg/kg (Mus musculus [19]): 50%
